3 compounds from publication PMC9780064, “Structural analysis of cannabinoids against EGFR-TK leads a novel target against EGFR-driven cell lines” (Current Research in Pharmacology and Drug Discovery, 2022) can be followed below.

Test [1] has as its target T1, EGFR-TK (tyrosine kinase domain of EGFR) (Homo sapiens, UniProt P00533).
T1 construct: cloned into pCold I, expressed in E. coli Rosetta (DE3); DEAE, Resource Q and Superdex 200 purification; immobilised by amine coupling for SPR
Briefly: SPR (OpenSPR), immobilised EGFR-TK, […] Langmuir kinetic fit. Type of test: binding.

Test [2] has as its target T1, EGFR-TK (tyrosine kinase domain of EGFR). Briefly: ADP-Glo kinase assay, poly(Glu:Tyr) substrate. Type of test: biochemical. To be noted: read-out: EGFR-TK inhibition IC50. In general terms: ADP-Glo first removes unused ATP, then detects ADP through luciferase.

T1 sequence (P00533 696-1022 limits assumed): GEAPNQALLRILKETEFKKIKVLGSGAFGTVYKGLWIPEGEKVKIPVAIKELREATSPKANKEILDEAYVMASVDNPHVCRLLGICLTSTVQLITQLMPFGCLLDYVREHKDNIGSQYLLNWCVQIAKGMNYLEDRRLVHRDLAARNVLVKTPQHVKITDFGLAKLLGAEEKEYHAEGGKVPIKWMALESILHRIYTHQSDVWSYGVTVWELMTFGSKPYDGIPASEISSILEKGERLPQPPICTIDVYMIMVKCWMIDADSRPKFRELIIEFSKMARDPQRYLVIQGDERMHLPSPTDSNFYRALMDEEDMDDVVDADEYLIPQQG

Broadly, the Kd is the free concentration of one partner at which half of the binding sites on the other are occupied at equilibrium, for simple one-to-one binding. As usually defined, the IC50 is the concentration that inhibits the measured activity by half. In test [1], `C=C(C)[C@@H]1CCC(C)=C[C@H]1c1c(O)cc(CCCCC)cc1O` [CBD] gave an equilibrium dissociation constant (Kd) of 8350 nM. Also, in test [2], the IC50 worked out at 32.6 ± 3.16 nM.

In test [1], `CCCCCc1cc(O)c2c(c1)OC(C)(C)c1ccc(C)cc1-2` [CBN] came in with a Kd of 32100 nM. The concentration for half-maximal inhibition (IC50) in test [2] is 78.8 ± 2.2 nM.

In test [1], `CCCCCc1cc(O)c(C/C=C(\C)CCC=C(C)C)c(O)c1` [CBG] displayed a Kd of 5610 nM. In addition, the half-maximal inhibitory concentration (IC50) in test [2] turned out to be 29.9 ± 2.1 nM.
